Reference: patent US6194387A, “6-O-aklyl erythromycin B oxime” (Abbott Laboratories, priority 1999, dated 2001)
In brackets after ≈: the same amount, converted by molar mass. Where two headings read alike, the source gives them in different places.

How the values were obtained:
EN[…] [1] = assay: in vitro antibacterial activity, agar dilution MIC; assay type: cell-based, Enterobacter aerogenes; settings: Klebsiella aerogenes, ATCC13048, read-out: SMIC
Protocol: (§1) 6-O-Methyl-9-oxime erythromycin B prepared in accordance with Examples 1 and 2 was assayed in vitro for anitbacterial activity as follows: Twelve petri dishes containing successive aqueous dilutions of the test compound mixed with 10 mL of sterilized Brain Heart Infusion (BHI) agar (Difco 0418-01-5) were prepared. Each plate was inoculated with 1:100 (or 1:10 for slow-growing strains, such as Micrococcus and Streptococcus) dilutions of up to 32 different micoorganisims, using a Steers replicatore block. The inoculated plates were incubated at 35-37° C. for 20 to 24 hours. In addition, a control plate, using BHI agar containing no test compound, was prepared and incubated at the beginning and end of each test.
(§2) An additional plate containing a compound having known susceptibility patterns for the organisms being tested and belonging to the same antibiotic class as the test compound was also prepared and incubated as further control, as well as to provide test-to-test comparability. Erythromycin A was used for this purpose.
(§3) After incubation, each disk was read. The minimum inhibitory concentration (MIC) was defined as the lowest concentration of drug yielding no growth, a slight haze, or sparsely isolated colonies on the inoculum spot as compared to the growth control.

CANDIDA ALBICANS = assay: in vitro antimicrobial activity, agar dilution MIC; assay type: cell-based; settings: read-out: SMIC
Protocol: as §1, §2, §3

M[…] [2] = assay: in vitro antibacterial activity, agar dilution MIC; assay type: cell-based, Micrococcus pyogenes; settings: Staphylococcus aureus, ATCC9341, read-out: SMIC
Protocol: as §1, §2, §3

KLEBSIELLA PNEUMONIAE = assay: in vitro antibacterial activity, agar dilution MIC; assay type: cell-based; settings: ATCC8045, read-out: SMIC
Protocol: as §1, §2, §3

HAEMOPHILUS INFLUENZAE = assay: in vitro antibacterial activity, agar dilution MIC; assay type: cell-based
Protocol: as §1, §2, §3

M[…] [3] = assay: in vitro antibacterial activity, agar dilution MIC; assay type: cell-based; settings: Micrococcus luteus, ATCC4698, read-out: SMIC
Protocol: as §1, §2, §3

[4] = system: STAPHYLOCOCCUS PNEUMONIAE; assay: in vitro antibacterial activity, agar dilution MIC; assay type: cell-based
Protocol: as §1, §2, §3

[5] = system: ACINETOBACTER CALCOACETICUS; assay: in vitro antibacterial activity, agar dilution MIC; assay type: cell-based; settings: read-out: SMIC
Protocol: as §1, §2, §3

PSEUDOMONAS AERUGINOSA = assay: in vitro antibacterial activity, agar dilution MIC; assay type: cell-based
Protocol: as §1, §2, §3

NOCARDIA ASTEROIDES = assay: in vitro antibacterial activity, agar dilution MIC; assay type: cell-based; settings: ATCC9970, Table 2, ATCC 9970, read-out: SMIC
Protocol: as §1, §2, §3

MYCOBACTERIIUM SMEGMATIS = assay: in vitro antibacterial activity, agar dilution MIC; assay type: cell-based; settings: read-out: SMIC
Protocol: as §1, §2, §3

STAPHYLOCOCCUS AUREUS = assay: in vitro antibacterial activity, agar dilution MIC; assay type: cell-based
Protocol: as §1, §2, §3

STAPHYLOCOCCUS PYOGENES = assay: in vitro antibacterial activity, agar dilution MIC; assay type: cell-based
Protocol: as §1, §2, §3

EN[…] [6] = assay: in vitro antibacterial activity, agar dilution MIC; assay type: cell-based; settings: Enterococcus faecium, ATCC8043, read-out: SMIC
Protocol: as §1, §2, §3

[7] = system: STAPHYLOCOCCUS EPIDERMIDIS; assay: in vitro antibacterial activity, agar dilution MIC; assay type: cell-based; settings: read-out: SMIC
Protocol: as §1, §2, §3

PROVIDENCIA STUART II = assay: in vitro antibacterial activity, agar dilution MIC; assay type: cell-based; settings: read-out: SMIC
Protocol: as §1, §2, §3

STAPHYLOCOCCUS BOVIS = assay: in vitro antibacterial activity, agar dilution MIC; assay type: cell-based; settings: read-out: SMIC
Protocol: as §1, §2, §3

PSEUDOMONAS CEPACIA = assay: in vitro antibacterial activity, agar dilution MIC; assay type: cell-based; settings: Burkholderia cepacia; Table 2; 2961; read-out: SMIC
Protocol: as §1, §2, §3

STAP[…] = assay: in vitro antibacterial activity, agar dilution MIC; assay type: cell-based, Staphylococcus agalactiae; settings: Staphylococcus, read-out: SMIC
Protocol: as §1, §2, §3

Structure (SMILES): CC[C@H]1OC(=O)[C@H](C)[C@@H](O[C@H]2C[C@@](C)(OC)[C@@H](O)[C@H](C)O2)[C@H](C)[C@@H](O[C@@H]2O[C@H](C)C[C@H](N(C)C)[C@H]2O)[C@](C)(O)C[C@@H](C)C(=O)[C@H](C)[C@@H](O)[C@]1(C)O [Erythromycin A, reference compound]
- MIC (EN[…] [1]): > 100 µg/mL
- MIC (CANDIDA ALBICANS): > 100 µg/mL
- MIC (M[…] [2]): 0.01 µg/mL (≈ 0.0136 µM)
- MIC (KLEBSIELLA PNEUMONIAE): > 100 µg/mL
- MIC (HAEMOPHILUS INFLUENZAE; ATCC10211, read-out: SIMC, Table 3, ATCC 10211): 8 µg/mL (≈ 10.9 µM)
- MIC (HAEMOPHILUS INFLUENZAE; ATCC19418, read-out: SIMC, Table 3, ATCC 19418): 8 µg/mL (≈ 10.9 µM)
- MIC (HAEMOPHILUS INFLUENZAE; ATCC43095, read-out: SIMC, Table 3, ATCC 43095): 1 µg/mL (≈ 1.36 µM)
- MIC (HAEMOPHILUS INFLUENZAE; read-out: SIMC, Table 3, CMX 503B): 8 µg/mL (≈ 10.9 µM)
- MIC (HAEMOPHILUS INFLUENZAE; read-out: SIMC, Table 3, CMX 504): 8 µg/mL (≈ 10.9 µM)
- MIC (HAEMOPHILUS INFLUENZAE; read-out: SIMC, Table 3, CMX 519A): 4 µg/mL (≈ 5.45 µM)
- MIC (HAEMOPHILUS INFLUENZAE; read-out: SIMC, Table 3, CMX 566A): 4 µg/mL (≈ 5.45 µM)
- MIC (HAEMOPHILUS INFLUENZAE; read-out: SIMC, Table 3, CMX 588A): 4 µg/mL (≈ 5.45 µM)
- MIC (HAEMOPHILUS INFLUENZAE; read-out: SIMC, Table 3, CMX 632A): 4 µg/mL (≈ 5.45 µM)
- MIC (HAEMOPHILUS INFLUENZAE; read-out: SIMC, Table 3, CMX 747C): 8 µg/mL (≈ 10.9 µM)
- MIC (HAEMOPHILUS INFLUENZAE; read-out: SIMC, Table 3, CMX 751): 8 µg/mL (≈ 10.9 µM)
- MIC (HAEMOPHILUS INFLUENZAE; read-out: SIMC, Table 3, GYR 1177): 0.25 µg/mL (≈ 0.341 µM)
- MIC (HAEMOPHILUS INFLUENZAE; read-out: SIMC, Table 3, GYR 1435): 2 µg/mL (≈ 2.73 µM)
- MIC (HAEMOPHILUS INFLUENZAE; read-out: SIMC, Table 3, SOL AMP R): 4 µg/mL (≈ 5.45 µM)
- MIC (HAEMOPHILUS INFLUENZAE; read-out: SIMC, Table 3, SPK AMP R): 4 µg/mL (≈ 5.45 µM)
- MIC (M[…] [3]): 0.39 µg/mL (≈ 0.531 µM)
- MIC ([4]; read-out: SIMC, Table 3, 5649): 8 µg/mL (≈ 10.9 µM)
- MIC ([4]; read-out: SIMC, Table 3, 5654): 16 µg/mL (≈ 21.8 µM)
- MIC ([4]; read-out: SIMC, Table 3, 5728): 128 µg/mL (≈ 174 µM)
- MIC ([4]; read-out: SIMC, Table 3, 5737): 128 µg/mL (≈ 174 µM)
- MIC ([4]; read-out: SIMC, Table 3, 5979): 128 µg/mL (≈ 174 µM)
- MIC ([4]; read-out: SIMC, Table 3, GYR 1171): 0.03 µg/mL (≈ 0.0409 µM)
- MIC [5]: 12.5 µg/mL (≈ 17 µM)
- MIC (PSEUDOMONAS AERUGINOSA; read-out: SMIC, Table 2, 5007): > 100 µg/mL
- MIC (PSEUDOMONAS AERUGINOSA; read-out: SMIC, Table 2, BMH10): 100 µg/mL (≈ 136 µM)
- MIC (PSEUDOMONAS AERUGINOSA; read-out: SMIC, Table 2, DPHD-2862): > 100 µg/mL
- MIC (PSEUDOMONAS AERUGINOSA; read-out: SMIC, Table 2, DPHD-5263): > 100 µg/mL
- MIC (PSEUDOMONAS AERUGINOSA; read-out: SMIC, Table 2, K799/61): 0.78 µg/mL (≈ 1.06 µM)
- MIC (PSEUDOMONAS AERUGINOSA; read-out: SMIC, Table 2, K799/wt): > 100 µg/mL
- MIC (NOCARDIA ASTEROIDES): 0.005 µg/mL (≈ 0.00681 µM)
- MIC (MYCOBACTERIIUM SMEGMATIS): 12.5 µg/mL (≈ 17 µM)
- MIC (STAPHYLOCOCCUS AUREUS; ATCC6538P, read-out: SMIC, Table 2, ATCC 6538P): 0.39 µg/mL (≈ 0.531 µM)
- MIC (STAPHYLOCOCCUS AUREUS; read-out: SMIC, Table 2, 1775): > 100 µg/mL
- MIC (STAPHYLOCOCCUS AUREUS; read-out: SMIC, Table 2, A5177): 12.5 µg/mL (≈ 17 µM)
- MIC (STAPHYLOCOCCUS AUREUS; read-out: SMIC, Table 2, A-5278): > 100 µg/mL
- MIC (STAPHYLOCOCCUS AUREUS; read-out: SMIC, Table 2, CMX 553): 0.39 µg/mL (≈ 0.531 µM)
- MIC (STAPHYLOCOCCUS AUREUS; read-out: SMIC, Table 2, CMX 642A): 0.39 µg/mL (≈ 0.531 µM)
- MIC (STAPHYLOCOCCUS AUREUS; read-out: SMIC, Table 2, NCTC10649M): 0.39 µg/mL (≈ 0.531 µM)
- MIC (STAPHYLOCOCCUS PYOGENES; read-out: SIMC, Table 3, 930): 128 µg/mL (≈ 174 µM)
- MIC (STAPHYLOCOCCUS PYOGENES; read-out: SIMC, Table 3, EES61): 0.03 µg/mL (≈ 0.0409 µM)
- MIC (STAPHYLOCOCCUS PYOGENES; read-out: SIMC, Table 3, PIU 2548): 16 µg/mL (≈ 21.8 µM)
- MIC (STAPHYLOCOCCUS PYOGENES; read-out: SMIC, Table 2, 930): > 100 µg/mL
- MIC (STAPHYLOCOCCUS PYOGENES; read-out: SMIC, Table 2, EES61): 0.01 µg/mL (≈ 0.0136 µM)
- MIC (STAPHYLOCOCCUS PYOGENES; read-out: SMIC, Table 2, PIU 2548): 6.2 µg/mL (≈ 8.45 µM)
- MIC (EN[…] [6]): 0.05 µg/mL (≈ 0.0681 µM)
- MIC [7]: 0.2 µg/mL (≈ 0.273 µM)
- MIC (PROVIDENCIA STUART II): > 100 µg/mL
- MIC (STAPHYLOCOCCUS BOVIS): 0.01 µg/mL (≈ 0.0136 µM)
- MIC (PSEUDOMONAS CEPACIA): > 100 µg/mL
- MIC (STAP[…]): 0.01 µg/mL (≈ 0.0136 µM)
